Key:
TNF-α = assay: LPS-induced TNF-α production in human PBMC, in vitro whole cell assay (ELISA); format: cell-based; conditions: LPS stimulation overnight, TNF-α by ELISA
Protocol: Compounds of the invention were measured for their ability to inhibit the activity of p38 in an in vitro whole cell assay using peripheral blood mononuclear cells (“PBMC” ) obtained from human blood as follows. Freshly obtained venous blood was anticoagulated with heparin, diluted with an equal volume of phosphate buffered saline (“PBS” ) and placed in a sterile tube or other container. Aliquots (30 mL) of this mixture were transferred to centrifuge tubes which were underlaid with Ficoll-Hypaque (15 mL). The prepared tubes were centrifuged at 400×g without braking for 30 min at room temperature. Approximately ½ to ⅔ of the platelet layer above the mononuclear cell band was removed with a pipet. The majority of the mononuclear cell layer was carefully removed using a pipet and these PBMCs were diluted with PBS and spun at 600×g for 15 min. The resulting PBMCs were washed with another portion of PBS and spun at 400×g for 10 min at room temperature. The recovered pellets were diluted in low endotoxin RPMI/1% FCS culture medium and gave a cell concentration of 0.5–2.0×10^6 PMBC/mL. A small volume of the suspension was removed for counting on a hemocytometer and the remaining preparation was centrifuged at 200×g for 15 min at room temperature. The recovered pelleted PMBC were resuspended in RPMI/1% FCS to a concentration of 1.67×10^6/mL. […]

Mouse TNF-α = assay: LPS induced TNF-α production, in vivo rodent assay (oral dosing, serum ELISA); conditions: LPS 1 mg/kg i.p. 30 min after dosing, serum 1 h later; for inhibition at 10 mg/kg: oral 10 mg/kg; for inhibition at 25 mg/kg: oral 25 mg/kg
Protocol: Mice (BALB/cJ females, Jackson Laboratories) or rats (Lewis males, Charles River) were fasted for 30 min prior to oral dosing with 5–10 mL/kg of test compound at 5–50 mg/kg. Thirty minutes after dosing, the animals were injected intraperitoneally with LPS at 1 mg/kg and returned to their cages for 1 h. Animals were anesthetized by CO2, exsanguinated by cardiac puncture and whole blood collected (0.1–0.7 mL). The blood was allowed to clot and serum was transferred to a centrifuge tube. This sample was centrifuged, serum was collected, aliquoted and frozen at −80 C. Samples were tested by commercial ELISAs for TNF-α (Endogen for mouse TNF-α and Biosource for rat TNF-α), resulting in data as shown in Table A.

**Q.** Which IC50 (TNF-α) does the source give for CN1CCC/C1=C\c1nc(-c2ccc(F)cc2)c(-c2ccncc2)n1CCCc1ccccc1 [Compound 1, 4-[4-(4-fluorophenyl)-2-[(E)-(1-methyl-2-pyrrolidinylidene)methyl]-1-(3-phenylpropyl)-1H-imidazol-5-yl]-pyridine] here?
**A.** 0.015 µM

**Q.** What about the inhibition at 10 mg/kg (Mouse TNF-α) of the same molecule?
**A.** 77%

**Q.** What about the inhibition at 25 mg/kg (Mouse TNF-α) of the same molecule?
**A.** 99%

**Q.** What about the melting point of the same molecule?
**A.** 171 to 172 °C

**Q.** With CCN1CCC/C1=C\c1nc(-c2ccc(F)cc2)c(-c2ccncc2)n1CCCc1ccccc1 [Compound 2, 4-[4-(4-fluorophenyl)-2-[(E)-(1-ethyl-2-pyrrolidinylidene)methyl]-1-(3-phenylpropyl)-1H-imidazol-5-yl]-pyridine] as the molecule, how does the IC50 (TNF-α) read?
**A.** 0.017 µM

**Q.** And the inhibition at 10 mg/kg (Mouse TNF-α)?
**A.** 89%

**Q.** What about the inhibition at 25 mg/kg (Mouse TNF-α) of the same molecule?
**A.** 98%

**Q.** What about the melting point of the same molecule?
**A.** 126.6 to 127.6 °C
